*1 amine or outer side, *2 acyl side, *3 side chain or, on linkers, in order; H or OH if unused. Where a SMILES comes first, the peptide text is derived from it. [ ]: non-standard residue; d: D form. The star is where a group is joined. DOTA = O=C(O)CN1CCN(CC(=O)O)CCN(CC(=O)*)CCN(CC(=O)O)CC1; Leuψ(CH2N)ThzNH2 = CC(C)C[C@@H](CN1CSC[C@H]1C(N)=O)N*; d2Nal = N[C@H](Cc1ccc2ccccc2c1)C(=O)O; Cya = N[C@@H](CS(=O)(=O)O)C(=O)O; X1 = O=C(CN1CCC(N[*:1])CC1)[*:2]
How the values were obtained:
GRPR = target: T1, GRPR (Homo sapiens, UniProt P30550); test: Fluorometric intracellular calcium release assay using PC-3 cells; assay type: cell-based; settings: 50 nM ligand
T1 construct: endogenous in cells; host or cells: PC-3 prostate cancer cells
T1 sequence (P30550 whole entry): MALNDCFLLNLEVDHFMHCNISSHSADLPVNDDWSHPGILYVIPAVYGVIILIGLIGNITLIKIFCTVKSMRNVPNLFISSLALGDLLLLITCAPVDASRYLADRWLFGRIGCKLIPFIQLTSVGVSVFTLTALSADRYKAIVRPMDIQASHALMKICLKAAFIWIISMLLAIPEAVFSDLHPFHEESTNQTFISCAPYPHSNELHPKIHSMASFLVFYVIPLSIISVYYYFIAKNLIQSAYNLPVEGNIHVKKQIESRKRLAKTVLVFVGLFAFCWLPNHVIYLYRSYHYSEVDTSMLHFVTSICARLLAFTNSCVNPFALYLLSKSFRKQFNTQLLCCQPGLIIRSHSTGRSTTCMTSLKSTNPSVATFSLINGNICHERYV
Procedure: Following previously published procedures, 5 × 10^4 PC-3 cells were seeded in 96-well clear-bottom black plates 24 h prior to the assay. The growth medium was removed and replaced with a loading buffer containing a calcium-sensitive dye (FLIPR Calcium 6 assay kit, Molecular Device, San Jose, CA, USA). After incubation at 37 °C for 30 min, the plates were placed in a FlexStation 3 microplate reader (Molecular Devices). […] Agonistic/antagonistic properties were determined using the relative fluorescent unit (RFU = max–min).

PC-3 tumor xenografts [1] = test: PET/CT imaging of mice bearing PC-3 tumor xenografts; assay type: in vivo; settings: 1 h post-injection
Procedure: The PET/CT imaging experiments were carried out using a Siemens (Knoxville, TN, USA) Inveon micro-PET/CT scanner. […] At 50 min post-injection, a 10 min CT scan was conducted: first for localization and attenuation corrections after segmentation for reconstructing the PET images, followed by a 10 min static PET imaging acquisition.

[2] = for Fraction remaining intact in plasma: NRG mice, 15 min post-injection, n = 3; for Intact tracer in urine: mouse urine samples collected at 15 min post-injection
Procedure: Imaging, biodistribution, and in vivo stability studies were performed using male NOD.Cg-Rag1^tm1Mom Il2rg^tm1Wjl/SzJ (NRG) mice (from in-house breeding colonies) following previously published procedures. […] When the tumor grew to 5–8 mm in diameter over 3–4 weeks, the mice were used for PET/CT imaging and biodistribution studies.
At 15 min post-injection, the mice were sedated and euthanized, and urine and blood were collected. The plasma was extracted from whole blood by the addition of CH3CN (500 μL), vortexing, centrifugation, and the separation of the supernatants. The plasma and urine samples were analyzed via radio-HPLC by using the conditions for quality control of these ^68Ga-labeled radioligands (Table S3).

PC-3 tumor xenografts [3] = test: Ex vivo biodistribution in PC-3 tumor-bearing mice; settings: 1 h post-injection, n = 4
Procedure: For biodistribution studies, the mice (n = 4) were injected with the radiotracer (~2–4 MBq, 0.03–0.07 nmol) as described above. […] At 1 h post-injection, the mice were euthanized by CO2 inhalation. Blood was withdrawn by cardiac puncture, and organs/tissues of interest were collected, weighed and counted using a Perkin Elmer (Waltham, MA, USA) Wizard2 2480 automatic gamma counter.

physchem = settings: 1-octanol/phosphate buffer, pH 7.4
Procedure: Briefly, aliquots (2 μL) of the ^68Ga-labeled peptides were added to a vial containing 3 mL of 1-octanol and 3 mL of 0.1 M phosphate buffer (pH 7.4). The mixture was vortexed for 1 min and then centrifuged at 5000 rpm for 10 min. Samples of the 1-octanol (1 mL) and buffer (1 mL) layers were taken and counted in a gamma counter. LogD7.4 was calculated using the following equation: LogD7.4 = log10[(counts in 1-octanol phase)/(counts in buffer phase)].

Molecule	Ca2+ efflux (relative fluorescence units, max-min) (GRPR) [RFU]	Excretion pathway in PET images (PC-3 tumor xenografts [1])	logD (physchem)	other results
Nc1ncnc2c1ncn2[C@@H]1O[C@H](COP(=O)(O)OP(=O)(O)OP(=O)(O)O)[C@@H](O)[C@H]1O [ATP, adenosine triphosphate]	334 ± 39.0			
CC(C)C[C@@H](CN1CSC[C@H]1C(N)=O)NC(=O)[C@H](Cc1c[nH]cn1)NC(=O)CNC(=O)[C@@H](NC(=O)[C@H](C)NC(=O)[C@H](Cc1c[nH]c2ccccc12)NC(=O)[C@H](CCC(N)=O)NC(=O)[C@H]1Cc2c([nH]c3ccccc23)CN1C(=O)CN1CCC(NC(=O)CN2CCN(CC(=O)O)CCN(CC(=O)O)CCN(CC(=O)O)CC2)CC1)C(C)C [Ga-TacsBOMB4]	9.30 ± 3.74			
CC(C)C[C@@H](CN1CSC[C@H]1C(N)=O)NC(=O)[C@H](Cc1c[nH]cn1)NC(=O)CNC(=O)[C@@H](NC(=O)[C@H](C)NC(=O)[C@H](Cc1c[nH]c2ccccc12)NC(=O)[C@H](CCC(N)=O)NC(=O)[C@@H](Cc1ccc2ccccc2c1)NC(=O)CN1CCC(NC(=O)[C@H](CS(=O)(=O)O)NC(=O)CN2CCN(CC(=O)O)CCN(CC(=O)O)CCN(CC(=O)O)CC2)CC1)C(C)C [Ga-TacsBOMB6] ({DOTA}-[Cya][X1][d2Nal]QWAVGH-{Leuψ(CH2N)ThzNH2})	23.0 ± 0.06			
CC(C)C[C@H](NC(=O)C[C@H](O)[C@H](CC(C)C)NC(=O)[C@H](Cc1c[nH]cn1)NC(=O)CNC(=O)[C@@H](NC(=O)[C@H](C)NC(=O)[C@H](Cc1c[nH]c2ccccc12)NC(=O)[C@H](CCC(N)=O)NC(=O)[C@@H](Cc1ccccc1)NC(=O)CN1CCC(NC(=O)CN2CCN(CC(=O)O)CCN(CC(=O)O)CCN(CC(=O)O)CC2)CC1)C(C)C)C(N)=O [[^68Ga]Ga-RM2, metal not drawn, reference compound]		primarily excreted through the renal pathway	-2.76 ± 0.03	Fraction remaining intact in plasma [2]: 71.9 ± 10.4%; Intact tracer in urine [2]: no intact; Spleen uptake (PC-3 tumor xenografts [3]): 0.44 ± 0.26 %ID/g
CC(C)C[C@@H](CN1CSC[C@H]1C(N)=O)NC(=O)[C@H](Cc1c[nH]cn1)NC(=O)CNC(=O)[C@@H](NC(=O)[C@H](C)NC(=O)[C@H](Cc1c[nH]c2ccccc12)NC(=O)[C@H](CCC(N)=O)NC(=O)[C@@H](Cc1ccccc1)NC(=O)CN1CCC(NC(=O)CN2CCN(CC(=O)O)CCN(CC(=O)O)CCN(CC(=O)O)CC2)CC1)C(C)C [[^68Ga]Ga-TacsBOMB2, metal not drawn]		primarily excreted through the renal pathway	-2.39 ± 0.13	Fraction remaining intact in plasma [2]: 83.3 ± 1.45%; Intact tracer in urine [2]: no intact
CC(C)C[C@@H](CN1CSC[C@H]1C(N)=O)NC(=O)[C@H](Cc1c[nH]cn1)NC(=O)CNC(=O)[C@@H](NC(=O)[C@H](C)NC(=O)[C@H](Cc1c[nH]c2ccccc12)NC(=O)[C@H](CCC(N)=O)NC(=O)[C@@H](Cc1ccc2ccccc2c1)NC(=O)CN1CCC(NC(=O)CN2CCN(CC(=O)O)CCN(CC(=O)O)CCN(CC(=O)O)CC2)CC1)C(C)C [[^68Ga]Ga-TacsBOMB3, metal not drawn]		primarily excreted through the renal pathway	-1.75 ± 0.04	
CC(C)C[C@@H](CN1CSC[C@H]1C(N)=O)NC(=O)[C@H](Cc1c[nH]cn1)NC(=O)CNC(=O)[C@@H](NC(=O)[C@H](C)NC(=O)[C@H](Cc1c[nH]c2ccccc12)NC(=O)[C@H](CCC(N)=O)NC(=O)[C@@H](Cc1ccc2ccccc2c1)NC(=O)CN1CCC(NC(=O)[C@H](CS(=O)(=O)O)NC(=O)CN2CCN(CC(=O)O)CCN(CC(=O)O)CCN(CC(=O)O)CC2)CC1)C(C)C [[^68Ga]Ga-TacsBOMB6, metal not drawn] ({DOTA}-[Cya][X1][d2Nal]QWAVGH-{Leuψ(CH2N)ThzNH2})		primarily excreted through the renal pathway	-2.55 ± 0.16	
[D-Phe^6,Leu-NHEt^13,des-Met^14]Bombesin(6–14)	25.3 ± 1.92			
bombesin	754 ± 38.3			
